Test results reported in PMC8178976, “A biocompatible stapling reaction for in situ generation of constrained peptides” (Chemical Science, 2020).
Where two headings read alike, the source gives them in different places. Where a SMILES comes first, the peptide text is derived from it. [ ]: non-standard residue; d: D form. Dab = NCC[C@H](N)C(=O)O

How the values were obtained:
[1] = the molecule shown is the open-chain precursor, crosslinker bond, 0.6 mM
[2] = target: Zika virus NS2B-NS3 protease (ZiPro) (Zika virus, UniProt A0A024B7W1); assay: Zika virus NS2B-NS3 protease (ZiPro) inhibition assay; format: biochemical; details: for IC50: purified compounds, dose-response curve assuming Hill slope of 1, 3-parameter fit
Experimental: Expression and purification of Zika virus protease NS2B-NS3 (ZiPro)
The unlinked Zika virus protease NS2B-NS3 construct referred to as bZiPro was obtained from Addgene (plasmid #86846) and expressed and purified exactly as described previously.1 Preparation of samples for ZiPro assay
Linear peptide samples 1a – 10a were prepared by adding 2 µl of 1a – 10a (10 mM in water) to 198 µl of buffer (10 mM Tris pH 7.5, 1 mM TCEP). The presence of TCEP is important to reduce cyclic disulfides. Stapled peptides 1b – 10b were prepared in situ by adding 2.5 µl of DCP (10 mM in DMSO) and 2 µl of 1a – 10a (10 mM in water) to 195.5 µl of buffer (10 mM Tris pH 7.5, 1 mM TCEP). Samples were incubated overnight, and the presence of stapled peptides 1b – 10b was confirmed by LC-MS (method B).
ZiP ro inhibition assay (Table 2)
The assay was conducted in 96-well plates (black U-bottom, Greiner Bio-One) in a total volume of 100 µl using 10 mM Tris pH 8.5, 1 mM CHAPS, 20% glycerol . All measurements were performed in triplicate. Purified peptides 1a – 10a and crude mixtures containing peptides 1b – 10b (prepared as described above) were incubated with ZiPro (0.3 nM) at final concentrations of 1 and 10 µM. The enzymatic reaction was initiated by addition of the substrate Bz-Nle-Ly s-Lys-Arg-A MC (Biosynt a n) at a final concentration of 5 µM.
Fluorescence was monitored by a fluorophotometer (Spectramax M2e plate reader, Molecular Devices) for 5 min at 460 nm using 360 nm excitation. Initial velocities were derived from the linear range, and 100% enzyme activity was defined as the initial velocity of blank wells containing no peptide. Percent inhibition was calculated as a fraction of 100% enzyme activity.
In situ stapling of 1b during ZiPro inhibition assay (Figure 3a)
All measurements were performed in triplicate. 2 µl of DCP (20 mM in DMSO) and 2 µl of 1a (10 mM in water) were mixed in 196 µl buffer (10 mM Tris pH 7.5, 4 mM TCEP). A blank was prepared by adding 2 µl of DCP (20 mM in DMSO) to 198 µl buffer (10 mM Tris pH 7.5, 4 mM TCEP). After 5 minutes, 10 µl of the reaction and blank mixtures were added to ZiPro (0.3 nM) in assay buffer (10 mM Tris pH 8.5, 1 mM CHAPS, 20% glycerol) to a total volume of 100 µl and incubated at room temperature. After incubation over 5, 20, 45, 90 and 180 minutes, substrate (5 µM) was added, and the enzyme activity was monitored as described above. Percent inhibition was calculated as a fraction of 100% enzyme activity considering each individual set of blanks.
Determination of IC50 values of 1a and 1b (Figure 3b-c)
All measurements were performed in triplicate using the ZiPro assay described above . Stock solutions (1 mM and 2 mM) of 1a were prepared in buffer (10 mM Tris pH 7.5, 4 m M T C EP) and used immediately. ZiPro inhibition of 1a was measured at 100, 50, 20, 5, 2. 5, 1, and 0. 5
µM. Stock solutions of purified 1b were made in water. ZiPro inhibition of 1b was measured at 50, 20, 5, 2.5, 1, 0.5, and 0.1 µM. The IC50 values were calculated using GraphPad Prism 8 using a 3 -parameter fit . […]

Chain of Zika virus NS2B-NS3 protease (ZiPro) (A0A024B7W1 1503-1679): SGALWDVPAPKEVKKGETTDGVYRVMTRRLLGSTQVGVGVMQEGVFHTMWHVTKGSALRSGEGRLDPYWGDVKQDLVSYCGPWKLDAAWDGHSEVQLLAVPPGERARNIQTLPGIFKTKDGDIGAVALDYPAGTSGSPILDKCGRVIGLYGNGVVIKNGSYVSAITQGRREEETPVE
Chain of Zika virus NS2B-NS3 protease (ZiPro) (A0A024B7W1 1417-1468): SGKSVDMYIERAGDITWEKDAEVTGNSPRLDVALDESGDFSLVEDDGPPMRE

**Q.** With H-Cys-Lys-Arg-Lys-Orn(Cys)-NH2? as the molecule, how does the ring closure, conversion ([1]; 26-membered ring, 2,6-dicyanopyridine (2 eq)/TCEP, 10 mM Tris pH 7.5 (aq, MeOH from DCP stock)) read?
**A.** 79%

**Q.** For N#Cc1cccc(C#N)n1 [DCP, 2,6-dicyanopyridine, reference compound], which “effect of DCP on ZiPro activity” value ([2]; concentrations of DCP used in the assay) is on record?
**A.** no significant effect

**Q.** Which IC50 ([2]; triplicate) does the source give for N=C(N)NCCC[C@H](NC(=O)[C@H](CCCCN)NC(=O)[C@@H](N)CCNC(=O)[C@@H](N)CS)C(=O)N[C@@H](CCCCN)C(=O)N[C@@H](CCNC(=O)[C@@H](N)CS)C(N)=O [1a] (H-[Dab](Cys)KRK[Dab](Cys)-NH2) here?
**A.** 23 µM

**Q.** What about the “ZiPro inhibition (%) 1 μM” value ([2]; purified linear peptides at 1 μM, ZiPro 0.3 nM, substrate 5 μM, 10 mM Tris pH 8.5, 1 mM CHAPS, 20% glycerol, triplicate, n.i. = no inhibition) of the same molecule?
**A.** n.i.

**Q.** And the inhibition at 10 µM ([2]; purified linear peptides at 10 μM, ZiPro 0.3 nM, substrate Bz-Nle-Lys-Lys-Arg-AMC 5 μM, 10 mM Tris pH 8.5, 1 mM CHAPS, 20% glycerol, fluorescence, triplicate, n.i. = no inhibition)?
**A.** 23 ± 4%

**Q.** For H-Cys-Lys-Arg-Lys-Lys(Cys)-NH2?, which ring closure, conversion ([1]; 27-membered ring, 2,6-dicyanopyridine (2 eq)/TCEP, 10 mM Tris pH 7.5 (aq, MeOH from DCP stock)) is on record?
**A.** 83%

**Q.** For H-Cys-Lys-Arg-Lys-Dap(Cys)-NH2?, which ring closure, conversion ([1]; 24-membered ring, 2,6-dicyanopyridine (2 eq)/TCEP, 10 mM Tris pH 7.5 (aq, MeOH from DCP stock)) is on record?
**A.** 83%

**Q.** What does the source list for H-Dys-Lys-Arg-Lys-Dys-NH2?
**A.** ring closure, conversion ([1]; 30-membered ring, 2,6-dicyanopyridine (2 eq)/TCEP (6 eq), 10 mM Tris pH 7.5): 93%; ring closure, conversion ([1]; 30-membered ring, 2,6-dicyanopyridine (2 eq)/TCEP, 10 mM Tris pH 7.5 (aq, MeOH from DCP stock)): 89%; ring closure, conversion ([1]; 30-membered ring, 2,6-dicyanopyridine (8 eq)/TCEP, 10 mM Tris pH 7.5): 60%

**Q.** For N=C(N)NCCC[C@@H]1NC(=O)[C@H](CCCCN)NC(=O)[C@@H](N)CCNC(=O)[C@@H]2CSC(=N2)c2cccc(n2)C2=N[C@@H](CS2)C(=O)NCC[C@@H](C(N)=O)NC(=O)[C@H](CCCCN)NC1=O [1b], which inhibition at 1 µM ([2]; in situ stapled peptides (crude mixtures, no purification) after 24 h incubation with DCP, 1 μM, ZiPro 0.3 nM, substrate 5 μM, pH 8.5, triplicate, n.i. = no inhibition) is on record?
**A.** 27 ± 4%

**Q.** What about the inhibition at 10 µM ([2]; in situ stapled peptides (crude mixtures, no purification) after 24 h incubation with DCP, 10 μM, ZiPro 0.3 nM, substrate 5 μM, pH 8.5, triplicate, n.i. = no inhibition) of the same molecule?
**A.** 60 ± 7%

**Q.** And the IC50 ([2]; triplicate)?
**A.** 0.8 µM

**Q.** With H-Cys-Lys-Arg-Lys-Dab(Cys)-NH2? as the molecule, how does the ring closure, conversion ([1]; 25-membered ring, 2,6-dicyanopyridine (2 eq)/TCEP, 10 mM Tris pH 7.5 (aq, MeOH from DCP stock)) read?
**A.** 76%
